Measurements: ChEMBL document CHEMBL1201862, “PubChem BioAssay data set” (2004)
Activity calls are given as the source filed them.

What was measured:
[1] = target: T1, Protein skinhead-1 (Caenorhabditis elegans, UniProt P34707); assay type: functional
T1 sequence (P34707 whole entry): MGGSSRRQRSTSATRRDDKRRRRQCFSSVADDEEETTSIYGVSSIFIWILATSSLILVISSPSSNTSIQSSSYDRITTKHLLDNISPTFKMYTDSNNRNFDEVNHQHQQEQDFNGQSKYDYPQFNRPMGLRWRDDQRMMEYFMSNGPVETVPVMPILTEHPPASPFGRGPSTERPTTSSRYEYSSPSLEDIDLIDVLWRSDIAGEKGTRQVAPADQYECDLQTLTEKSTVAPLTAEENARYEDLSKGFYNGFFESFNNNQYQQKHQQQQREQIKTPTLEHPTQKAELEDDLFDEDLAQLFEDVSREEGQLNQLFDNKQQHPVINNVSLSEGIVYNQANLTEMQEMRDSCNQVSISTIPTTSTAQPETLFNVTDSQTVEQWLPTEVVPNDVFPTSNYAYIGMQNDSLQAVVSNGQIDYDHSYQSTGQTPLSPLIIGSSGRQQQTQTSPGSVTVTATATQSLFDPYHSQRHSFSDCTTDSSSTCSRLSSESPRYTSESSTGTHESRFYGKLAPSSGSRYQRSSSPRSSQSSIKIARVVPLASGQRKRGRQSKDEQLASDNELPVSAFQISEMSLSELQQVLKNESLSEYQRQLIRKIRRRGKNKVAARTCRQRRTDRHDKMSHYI

[2] = target: T2, Short transient receptor potential channel 4 (Mus musculus, UniProt Q9QUQ5); assay: mouse TRPC4 channel inhibitors, dose response, cell-based, HEK293 TRPC4/mu-opioid, Fluo-4 calcium (AID 434942); assay type: functional;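 further: potency of inhibitors blocking the TRPC4 calcium response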
T2 sequence (Q9QUQ5 whole entry): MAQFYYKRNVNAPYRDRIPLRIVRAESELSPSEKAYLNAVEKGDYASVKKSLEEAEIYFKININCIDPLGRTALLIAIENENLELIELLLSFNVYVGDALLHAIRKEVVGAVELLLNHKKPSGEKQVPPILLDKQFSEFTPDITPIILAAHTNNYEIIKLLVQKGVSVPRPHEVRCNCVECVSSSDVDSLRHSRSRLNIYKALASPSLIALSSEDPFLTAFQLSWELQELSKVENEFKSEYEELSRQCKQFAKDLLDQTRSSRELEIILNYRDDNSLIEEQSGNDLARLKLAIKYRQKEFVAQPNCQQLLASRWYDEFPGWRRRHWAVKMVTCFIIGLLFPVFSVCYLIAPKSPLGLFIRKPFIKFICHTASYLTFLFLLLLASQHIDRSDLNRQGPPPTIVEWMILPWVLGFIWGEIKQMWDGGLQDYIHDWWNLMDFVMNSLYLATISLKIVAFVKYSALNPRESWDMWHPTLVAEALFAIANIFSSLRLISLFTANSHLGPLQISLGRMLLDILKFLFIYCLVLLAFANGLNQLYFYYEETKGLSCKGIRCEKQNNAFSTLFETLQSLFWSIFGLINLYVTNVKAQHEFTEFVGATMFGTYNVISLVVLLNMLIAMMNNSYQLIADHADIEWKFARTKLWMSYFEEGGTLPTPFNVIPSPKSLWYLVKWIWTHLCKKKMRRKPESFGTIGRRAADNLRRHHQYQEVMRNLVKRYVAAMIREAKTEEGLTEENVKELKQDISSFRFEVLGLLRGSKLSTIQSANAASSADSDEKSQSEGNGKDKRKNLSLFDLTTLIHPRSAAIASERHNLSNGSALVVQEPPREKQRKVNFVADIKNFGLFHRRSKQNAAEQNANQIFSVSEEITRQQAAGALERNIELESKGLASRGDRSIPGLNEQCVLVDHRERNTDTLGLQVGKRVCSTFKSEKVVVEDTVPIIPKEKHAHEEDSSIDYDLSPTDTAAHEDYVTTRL

[3] = target: Phospholipase A2 (Homo sapiens, UniProt P04054); assay type: functional;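 further: confirmatory dose-response counterscreen on phospholipase A2, testing hits that came from an ultra-high-throughput screen for ATG4B inhibitors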
[4] = off-target signal loss in HeLa-CEM21 co-culture – HeLa F-luc CTL cells, cherry-picked, counter-screen for HIV-1 Env fusion inhibitor project, dose response (AID 652040); assay type: functional, cell-based;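 further: potency for signal decrease marking cytotoxic or nonspecific inhibition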
[5] = target: Eukaryotic translation initiation factor 4E (Mus musculus, UniProt P63073); assay: eIF4E–eIF4G protein interaction inhibitors, dose response, biochemical, TR-FRET (AID 855); assay type: functional;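 further: potency for disrupting eIF4E binding to eIF4GI seen as loss of FRET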
[6] = target: T3, Hexokinase-1 (Homo sapiens, UniProt P19367); assay: hexokinase 1 activators, dose response, selectivity assay for HKDC1 activator project, biochemical (AID 504762); assay type: functional
T3 sequence (P19367 whole entry): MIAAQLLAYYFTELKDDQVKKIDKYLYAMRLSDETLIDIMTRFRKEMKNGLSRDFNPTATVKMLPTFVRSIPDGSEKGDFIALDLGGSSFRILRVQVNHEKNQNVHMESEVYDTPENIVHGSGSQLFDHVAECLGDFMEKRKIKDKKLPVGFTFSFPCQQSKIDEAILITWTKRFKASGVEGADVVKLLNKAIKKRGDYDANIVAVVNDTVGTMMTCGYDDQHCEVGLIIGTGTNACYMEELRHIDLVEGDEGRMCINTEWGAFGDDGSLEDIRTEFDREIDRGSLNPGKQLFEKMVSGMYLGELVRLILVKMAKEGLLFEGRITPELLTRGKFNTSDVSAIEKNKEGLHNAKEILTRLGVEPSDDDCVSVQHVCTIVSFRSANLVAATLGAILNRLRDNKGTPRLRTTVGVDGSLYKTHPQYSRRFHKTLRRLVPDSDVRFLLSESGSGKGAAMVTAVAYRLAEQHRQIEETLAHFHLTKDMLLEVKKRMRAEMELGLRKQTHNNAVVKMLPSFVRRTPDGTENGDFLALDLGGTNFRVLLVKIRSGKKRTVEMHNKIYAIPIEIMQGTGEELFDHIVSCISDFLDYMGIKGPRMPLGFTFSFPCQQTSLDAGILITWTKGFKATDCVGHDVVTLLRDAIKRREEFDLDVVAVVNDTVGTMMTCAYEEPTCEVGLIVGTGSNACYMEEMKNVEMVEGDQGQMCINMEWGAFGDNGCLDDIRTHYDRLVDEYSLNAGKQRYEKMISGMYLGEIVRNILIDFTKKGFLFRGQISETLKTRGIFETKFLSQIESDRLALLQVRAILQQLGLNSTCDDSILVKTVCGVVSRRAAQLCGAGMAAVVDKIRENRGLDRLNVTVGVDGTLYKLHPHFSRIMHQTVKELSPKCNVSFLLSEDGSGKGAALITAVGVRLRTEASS

[7] = target: Voltage-gated N-type calcium channel alpha-1B subunit/Amyloid beta A4 precursor protein-binding family A member 1 (Homo sapiens, UniProt Q00975+Q02410); assay type: protein assay
[8] = cytotoxicity in HEK-293T cells, dose response, cytotoxicity control for TCR NF-kB inhibitor project, luminescence, T-cell screen hits (AID 489026); assay type: functional, cell-based;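 further: cells exposed to compound about 14 hours before the viability readout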
[9] = target: Photoreceptor-specific nuclear receptor (Homo sapiens, UniProt Q9Y5X4); assay type: functional, cell-based;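 further: CHO-S cells with Gal4-NCOR and VP16-NR2E3 two-hybrid luciferase reporter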
[10] = control 3'UTR Renilla luciferase suppression, dose response, counter-screen for Shn3 inhibitor project, cell-based, Clone20-Shn3RL, cherry-picked (AID 624133); assay type: functional

Chain of Voltage-gated N-type calcium channel alpha-1B subunit/Amyloid beta A4 precursor protein-binding family A member 1 (Q00975 whole entry): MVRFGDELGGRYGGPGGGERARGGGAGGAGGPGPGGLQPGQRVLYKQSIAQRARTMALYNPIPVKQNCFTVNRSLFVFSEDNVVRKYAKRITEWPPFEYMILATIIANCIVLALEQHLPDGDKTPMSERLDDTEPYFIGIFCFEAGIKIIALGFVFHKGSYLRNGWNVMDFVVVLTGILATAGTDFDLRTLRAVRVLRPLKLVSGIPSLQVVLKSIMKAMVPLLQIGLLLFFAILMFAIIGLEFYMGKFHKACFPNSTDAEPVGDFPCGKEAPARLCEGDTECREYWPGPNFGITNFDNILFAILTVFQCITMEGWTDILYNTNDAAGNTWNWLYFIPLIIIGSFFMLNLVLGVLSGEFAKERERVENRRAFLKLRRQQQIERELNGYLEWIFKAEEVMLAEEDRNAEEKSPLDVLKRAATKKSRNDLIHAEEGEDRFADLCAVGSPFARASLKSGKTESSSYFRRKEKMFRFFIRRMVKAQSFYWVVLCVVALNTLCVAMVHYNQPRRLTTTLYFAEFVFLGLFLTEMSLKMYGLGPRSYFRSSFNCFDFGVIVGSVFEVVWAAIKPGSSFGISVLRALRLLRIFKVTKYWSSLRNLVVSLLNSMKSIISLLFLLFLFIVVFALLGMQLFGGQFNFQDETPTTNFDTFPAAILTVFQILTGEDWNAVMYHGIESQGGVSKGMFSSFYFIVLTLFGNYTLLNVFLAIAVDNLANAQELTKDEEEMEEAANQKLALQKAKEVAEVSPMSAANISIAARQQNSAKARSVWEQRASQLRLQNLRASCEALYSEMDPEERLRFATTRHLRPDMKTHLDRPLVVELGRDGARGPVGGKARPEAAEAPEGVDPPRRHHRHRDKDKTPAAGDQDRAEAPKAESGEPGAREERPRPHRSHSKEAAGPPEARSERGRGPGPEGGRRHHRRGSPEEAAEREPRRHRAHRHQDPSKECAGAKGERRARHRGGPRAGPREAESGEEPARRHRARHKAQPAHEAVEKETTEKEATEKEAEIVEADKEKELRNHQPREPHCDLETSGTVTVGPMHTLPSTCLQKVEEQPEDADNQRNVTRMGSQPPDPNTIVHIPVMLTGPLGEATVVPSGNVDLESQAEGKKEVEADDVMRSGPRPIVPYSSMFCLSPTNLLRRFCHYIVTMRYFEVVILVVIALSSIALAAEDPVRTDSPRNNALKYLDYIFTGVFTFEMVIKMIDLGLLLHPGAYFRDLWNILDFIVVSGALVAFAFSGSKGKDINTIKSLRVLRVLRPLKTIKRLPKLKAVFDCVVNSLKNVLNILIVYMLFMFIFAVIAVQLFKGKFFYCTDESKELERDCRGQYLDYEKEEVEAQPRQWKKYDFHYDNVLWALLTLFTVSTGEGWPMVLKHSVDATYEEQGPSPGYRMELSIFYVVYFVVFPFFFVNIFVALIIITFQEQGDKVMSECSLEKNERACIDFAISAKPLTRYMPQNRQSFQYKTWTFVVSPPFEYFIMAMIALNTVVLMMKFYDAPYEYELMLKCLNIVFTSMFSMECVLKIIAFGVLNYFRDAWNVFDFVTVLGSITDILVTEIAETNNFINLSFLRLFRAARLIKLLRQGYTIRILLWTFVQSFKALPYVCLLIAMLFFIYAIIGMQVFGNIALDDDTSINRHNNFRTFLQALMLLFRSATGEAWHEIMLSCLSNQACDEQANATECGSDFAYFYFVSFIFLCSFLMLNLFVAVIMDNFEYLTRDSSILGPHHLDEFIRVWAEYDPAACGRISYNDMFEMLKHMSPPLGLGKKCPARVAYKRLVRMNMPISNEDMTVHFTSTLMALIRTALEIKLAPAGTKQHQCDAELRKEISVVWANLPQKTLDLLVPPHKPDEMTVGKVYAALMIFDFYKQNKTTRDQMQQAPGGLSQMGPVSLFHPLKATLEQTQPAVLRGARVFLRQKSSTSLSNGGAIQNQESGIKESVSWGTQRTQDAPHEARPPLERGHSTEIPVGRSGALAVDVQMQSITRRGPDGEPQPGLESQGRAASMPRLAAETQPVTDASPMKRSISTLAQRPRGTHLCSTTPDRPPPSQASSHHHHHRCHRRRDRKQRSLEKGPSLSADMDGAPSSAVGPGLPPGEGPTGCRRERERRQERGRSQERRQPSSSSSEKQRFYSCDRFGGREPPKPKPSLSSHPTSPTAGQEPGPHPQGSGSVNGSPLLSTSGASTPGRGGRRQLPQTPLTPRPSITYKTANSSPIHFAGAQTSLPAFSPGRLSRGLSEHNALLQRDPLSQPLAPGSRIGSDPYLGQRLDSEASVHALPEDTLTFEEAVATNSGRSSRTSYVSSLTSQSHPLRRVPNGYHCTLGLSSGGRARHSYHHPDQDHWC
Chain of Voltage-gated N-type calcium channel alpha-1B subunit/Amyloid beta A4 precursor protein-binding family A member 1 (Q02410 whole entry): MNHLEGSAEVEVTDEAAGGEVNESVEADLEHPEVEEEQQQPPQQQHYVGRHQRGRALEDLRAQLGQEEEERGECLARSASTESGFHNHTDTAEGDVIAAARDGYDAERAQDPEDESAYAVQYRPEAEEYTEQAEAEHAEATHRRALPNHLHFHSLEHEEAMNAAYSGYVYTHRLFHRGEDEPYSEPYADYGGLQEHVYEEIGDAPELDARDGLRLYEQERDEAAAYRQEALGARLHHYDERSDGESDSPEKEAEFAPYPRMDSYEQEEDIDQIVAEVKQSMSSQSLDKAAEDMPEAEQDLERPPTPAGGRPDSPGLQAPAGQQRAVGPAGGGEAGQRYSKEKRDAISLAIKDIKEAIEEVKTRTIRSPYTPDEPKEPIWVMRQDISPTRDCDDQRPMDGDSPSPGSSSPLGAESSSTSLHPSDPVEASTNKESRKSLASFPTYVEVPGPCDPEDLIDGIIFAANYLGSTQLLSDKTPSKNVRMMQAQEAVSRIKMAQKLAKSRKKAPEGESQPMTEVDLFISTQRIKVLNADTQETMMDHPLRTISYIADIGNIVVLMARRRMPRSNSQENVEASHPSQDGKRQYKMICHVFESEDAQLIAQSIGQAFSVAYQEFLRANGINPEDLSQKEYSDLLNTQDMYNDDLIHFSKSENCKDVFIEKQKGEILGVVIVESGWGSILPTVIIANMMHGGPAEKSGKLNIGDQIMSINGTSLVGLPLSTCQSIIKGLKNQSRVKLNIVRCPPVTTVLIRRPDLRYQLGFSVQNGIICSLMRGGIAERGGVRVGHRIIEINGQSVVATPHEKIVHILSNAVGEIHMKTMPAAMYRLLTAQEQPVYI
Chain of Phospholipase A2 (P04054 whole entry, the tested form may be a part): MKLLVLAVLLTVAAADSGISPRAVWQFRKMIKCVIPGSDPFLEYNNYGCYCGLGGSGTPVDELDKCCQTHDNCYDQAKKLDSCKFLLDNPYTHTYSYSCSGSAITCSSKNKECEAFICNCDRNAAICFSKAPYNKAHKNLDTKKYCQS
Chain of Photoreceptor-specific nuclear receptor (Q9Y5X4 whole entry, the tested form may be a part): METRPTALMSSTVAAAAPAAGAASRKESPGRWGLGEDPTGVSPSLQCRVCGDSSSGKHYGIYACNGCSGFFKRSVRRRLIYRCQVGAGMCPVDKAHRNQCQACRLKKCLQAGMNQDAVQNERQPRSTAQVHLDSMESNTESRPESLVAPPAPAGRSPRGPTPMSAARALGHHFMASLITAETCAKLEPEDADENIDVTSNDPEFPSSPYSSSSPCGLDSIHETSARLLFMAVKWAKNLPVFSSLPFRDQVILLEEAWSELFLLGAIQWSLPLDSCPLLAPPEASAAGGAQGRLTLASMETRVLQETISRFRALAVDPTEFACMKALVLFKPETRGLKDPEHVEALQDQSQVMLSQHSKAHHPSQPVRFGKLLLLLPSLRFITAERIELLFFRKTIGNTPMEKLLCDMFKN
Chain of Eukaryotic translation initiation factor 4E (P63073 whole entry): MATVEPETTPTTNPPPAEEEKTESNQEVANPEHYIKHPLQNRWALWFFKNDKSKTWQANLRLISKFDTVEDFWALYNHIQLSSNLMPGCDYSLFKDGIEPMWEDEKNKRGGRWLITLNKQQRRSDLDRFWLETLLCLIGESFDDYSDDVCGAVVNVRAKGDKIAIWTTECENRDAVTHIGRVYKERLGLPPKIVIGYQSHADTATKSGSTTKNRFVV

**Q.** For `Cc1ccc(C)c(S(=O)(=O)/N=C2\C=C(NS(=O)(=O)c3ccccc3)C(=O)c3ccccc32)c1`, which IC50 [1] is on record?
**A.** The IC50 was > 100 µM (inactive).

**Q.** What about the EC50 [2] of the same molecule?
**A.** The EC50 was 6.68 µM (active).

**Q.** With `CCCCCCCCCCCCCCCCn1cc[n+](C)c1` as the molecule, how does the IC50 [3] read?
**A.** The IC50 was 5.78 µM (active).

**Q.** What about the AC50 [4] of the same molecule?
**A.** The AC50 was 7.76 µM (active).

**Q.** What about the IC50 [5] of the same molecule?
**A.** The IC50 was 12.9 µM (active).

**Q.** For `Cc1cc(C)nc(/N=c2/ssnc2Cl)c1`, which EC50 [6] is on record?
**A.** The EC50 was 39.9 µM (inactive).

**Q.** And the IC50 [7]?
**A.** Its IC50 is 10.6 µM (active).

**Q.** For `O=C(Nc1ccccc1Cl)/C(Cl)=C(\Cl)[S+]([O-])c1ccccc1` (stereo not given), which IC50 [8] is on record?
**A.** Its IC50 is 61.9 µM (inactive).

**Q.** And the IC50 [9]?
**A.** The IC50 was 2.92 µM (active).

**Q.** What about the AC50 [10] of the same molecule?
**A.** Its AC50 is 5.77 µM (active).
